Source: patent US9618524B2, “Method, composition, isolation and identification of a plaque particle and related biomarker” (Plaxgen Inc., priority 2012, dated 2017)

Tests used:
Assay in all cases: Mass spectroscopy proteomics, semi-quantitative binding affinity of serum proteins (plaqueproteome, Table 2)
Settings in all cases: higher number = stronger affinity
Tau plaque particles = tested on: Tau plaque particles; design: species or system human
Protocol: For Tau-74 (74-102) (Exon 3/Insert 2 domain) preparation, 1 mg of Tau-74 was suspended in 1 mL of PBS and the sample was incubated at 37° C. for 2 hrs. Similarly for preparing Tau-275 (275-305) (Repeat 2 domain) 1 mg of the peptide was suspended in 1 mL of PBS and the sample was incubated at 37° C. for 2 hrs. After incubation, all the samples were centrifuged for 5 min. at 5000 rpm to remove precipitate, if any, and the supernatant containing oligomers/aggregates were used for in vitro amyloid plaque particles formation assay. For detecting Tau plaque particles, Thioflavin S (Ex/Em=430 nm/550 nm) amyloid binding fluorescent dye (10 μg) was used in the assay.
Next, to isolate Tau plaque particles, as performed for Abeta-42 and Abeta-28 plaque particles isolation, diluted serum samples were used for incubation separately with Tau-45, Tau-74 and Tau-275 oligomers/aggregates. Each assay was performed in 1 mL reaction (800 μL of 50% plasma or serum) and 200 μL (30 μg) of each Tau aggregates and the mixtures were incubated at 37° C. for 1 hr. To the each mixture Thioflavin S dye (120 μg) was added and the sample was incubated for additional 30 min at 37° C. After the incubation, each sample was directly used for sample acquisition using flow cytometer (FACS ARIA II, BD Biosciences, San Jose, Calif.). After initial detection of Tau plaque particles, gates were drawn in the acquisition blot to separately sort and isolate fluorescently labeled Tau plaque particles.
(§1) For preparing trypsin digested peptide sequences, the isolated plaque particles were centrifuged at 10000 rpm for 5 min and the pellet containing plaque particles was resuspended in 100 μl PBS buffer. Stock solutions of digestion buffer (Ammonium Biocarbonate 50 mM), reducing buffer (DDT 100 mM) and alkylation buffer (lodoaceamide 100 mM) were prepared and stored at −20° C. for up to two months. For trypsin digestion, 100 μl of each plaque particles (2000 of Abeta-42, cholesterol, Tau and alpha-synuclein) were precipitated using cold acetone −80° C. by adding 4X's the volume. The samples were placed on dry ice for 10 min with intermittent vortex. Next, the samples were centrifuged at 4° C. at 10000 G for 10 min. Top layer of acetone was carefully removed from the tube with care not to disturb the plaque particles pellet. The samples were speed-vac for 10 min to ensure all acetone has been boiled away. The plaque particles pellet were reconstituted with 15 μl 8M Urea 100 mM Ammonium bicarbonate stock and 20 μl protease max solution. The protease max solution (Promega, Madison, Wis.) was prepared from stock by adding 60 μl 50 mM Ammonium bicarbonate and used for 3 solution digests (20 μl each). […] The tubes were incubated at 55° C. for 30 minutes. The tubes were then removed and brought to the room temperature followed by addition of 3.2 μl of 1M acrylamide and incubated at room temperature for 30 minutes. To the sample, 63 μL of 50 mM Ammonium bicarbonate was added for a final volume of 98 μl and 2 μl of trypsin (10 μg, Trypsin/Lys C Mix). After mixing the solution with pipet the samples were incubated at 37° C. overnight. After the overnight digest, the tryptic digest were quenched and acidified by adding 10 μl of 50% formic acid/water stock dilution. The samples were centrifuged at 10000 G for 2 minutes and purified using stage tip and used for MS/Mass analysis.
(§2) All MS/MS samples were analyzed using Sequest (Thermo Fisher Scientific, San Jose, Calif., USA; version 1.0). Sequest was set up to search the SUMS_uniprot_Human database (35847 entries) assuming the digestion enzyme strict trypsin. Sequest was searched with a fragment ion mass tolerance of 1.00 Da and a parent ion tolerance of 20 PPM. Propionamide of cysteine was specified in Sequest as a fixed modification. Oxidation of methionine and phospho of serine, threonine and tyrosine were specified in Sequest as variable modifications.

[1] = tested on: Low density cholesterol (Chl small) plaque particles; design: species or system human
Protocol: (§3) The goal was to isolate plaque particles synthesized in the bio-fluids in a relatively pure form to enable their subsequent use for identification of components that contribute to the plaque formation. In order to isolate cholesterol plaque particles, the plasma or serum samples obtained from atherosclerotic subjects were first centrifuged at 5,000 rpm for 5 min and the supernatants were transferred to new centrifuge tubes. Next, the supernatants were diluted in PBS to make 50% of the serum and used for incubation with cholesterol oligomers/aggregates. Each assay was performed in 1 mL reaction (800 μL of 50% plasma or serum) and 200 μL (30 μg) of the Cholesterol aggregates and the mixtures were incubated at 37° C. for 1 hr After the incubation, the mixture was directly used for sample acquisition using flow cytometer (FACS ARIA II, BD Biosciences, San Jose, Calif.). […] In order to isolate these fractions, three sets of gates were drawn in the acquisition blot to separately sort and isolate High density or high complex cholesterol particles, Low density or low complex cholesterol particles and both High and low density cholesterol particles together.
as §1, §2
(§4) Scaffold (version Scaffold_4.2.1, Proteome Software Inc., Portland, Oreg.) was used to validate MS/MS based peptide and protein identifications. […] Protein probabilities were assigned by the Protein Prophet algorithm (Nesvizhskii, Al et al 2003).

[2] = tested on: High Density cholesterol (Chl Large) plaque particles; design: species or system human
Protocol: as §3, §1, §2, §4

[3] = biological target: T1, alpha-synuclein plaque particles (Homo sapiens, UniProt P37840)
T1 construct: 140 amino acids polypeptide
Protocol: To prepare oligomers/aggregates of human alpha-synuclein (140 amino acids polypeptide), 1 mg of the recombinant alpha-synuclein protein was suspended in 1 mL of PBS and the sample was incubated at 37° C. for 2 hrs. After incubation, all the samples were centrifuged for 5 min. at 5000 rpm to remove precipitate, if any, and the supernatant containing oligomers/aggregates were used in vitro plaque particles formation assay. For detecting alpha-synuclein plaque particles Thioflavin S (Ex/Em=430 nm/550 nm) amyloid binding fluorescent dye (10 μg) was used.
Similarly, to isolate alpha-synuclein plaque particles, diluted plasma or serum samples obtained from AD subjects were used for incubation with alpha-synuclein plaque oligomers/aggregates. Each assay was performed in 1 mL reaction (800 μL of 50% plasma or serum) and 200 μL (30 μg) of the alpha-synuclein aggregates and the mixtures were incubated at 37° C. for 1 hr. To the mixture Thioflavin S dye (120 μg) was added and the sample was incubated for additional 30 min at 37° C. After the incubation, the mixture was directly used for sample acquisition using flow cytometer (FACS ARIA II, BD Biosciences, San Jose, Calif.). After initial detection of alpha-synuclein plaque particles, gates were drawn in the acquisition blot to separately sort and isolate fluorescently labeled alpha-synuclein particles.
as §1, §2
Scaffold (version Scaffold_4.2.1, Proteome Software Inc., Portland, Oreg.) was used to validate MS/MS based peptide and protein identifications.

[4] = biological target: T2, Abeta-42 plaque particles (Homo sapiens, UniProt P05067)
T2 construct: Abeta 1-42
Protocol: Next to isolate serum derived Abeta-42 plaque particles, the plasma or serum samples obtained from AD subjects were first centrifuged at 5,000 rpm for 5 min and the supernatants were transferred to new centrifuge tubes. Next, the supernatants were diluted in PBS to make 50% of the serum and plasma samples and used for incubation with Abeta-42 plaque oligomers/aggregates. Each assay was performed in 1 mL reaction (800 μL of 50% plasma or serum) and 200 μL (30 μg) of the Abeta-42 aggregates and the mixtures were incubated at 37° C. for 1 hr. To the mixture Thioflavin S dye (120 μg) was added and the sample was incubated for additional 30 min at 37° C. After the incubation, the mixture was directly used for sample acquisition using flow cytometer (FACS ARIA II, BD Biosciences, San Jose, Calif.). After initial detection of Abeta-42 plaque particles in the acquisition blot, gates were drawn in fluorescent dot blot to separately sort and isolate fluorescently labeled Abeta-42 particles.
as §1, §2
as §4, with “2003). […] Proteins sharing significant peptide evidence were grouped into clusters. Proteins were annotated with GO terms from NCBI (downloaded Jan. 17, 2014).” for “2003).”

Substance	Semi-quantitative analysis of proteins binding to different plaque particles: Tau (Tau plaque particles)	Semi-quantitative analysis of proteins binding to different plaque particles: Chl small [1]	Semi-quantitative analysis of proteins binding to different plaque particles: Chl Large [2]	Semi-quantitative analysis of proteins binding to different plaque particles: Synuclein [3]	Semi-quantitative analysis of proteins binding to different plaque particles: Abeta-42 [4]
Complement C1q subcomponent subunit B	2	0	1	2	0
Cluster of Ig gamma-1 chain C region	37	63	57	56	23
Plasma protease C1 inhibitor	3	7	7	9	4
Complement component C8 alpha chain	0	2	3	0	0
Ig heavy chain V-III region NIE	0	1	1	1	0
Ig kappa chain C region	15	21	17	15	11
Complement factor B	13	14	9	10	12
Ig kappa chain V-I region AU	0	1	1	0	2
Cluster of Complement C3	85	67	73	71	63
Ig heavy chain V-III region BUT	1	1	1	1	2
Complement C3	85	67	73	71	63
Hornerin	1	0	0	0	2
Complement component C8 gamma chain	2	1	0	2	0
Ig kappa chain V-III region NG9	3	1	2	2	0
